Experimental data published in US11273153B2, “MAPK inhibitors” (EverBrilliant Pharma Pty Ltd, priority 2014, dated 2022).
Read-outs that look alike come from different tables or passages of the source.

Key:
[1] = target: inactive non-phosphorylated p38α MAPK (Homo sapiens (Human), UniProt Q16539); experiment: Fluorescence polarisation (FP) binding assay, inactive enzyme
Method: (§1) A number of compounds were also assessed for the inhibition of p38α MAPK activity (www.kinase-screen.mrc.ac.uk) in which a radioactive (^33P-labelled ATP) filter binding assay was used to directly measure phosphate incorporation. Table 1 summarises the binding affinities of the synthesised compounds to both forms of the enzyme as well as the inhibitory activities against p38α MAPK. By way of enabling a comparison with a non-thiophene compound the biological testing was also carried out for known inhibitor RWJ67657, shown in table 1.
(§2) FP signals were measured with a PHERAstar microplate reader (BMG Labtech) using black, low-binding half-area 96 well plates (Corning). Each binding data point was carried out in duplicate or triplicate. Data were recorded in millipolarisation (mP) units and measured at an excitation wavelength of 485 nm and an emission wavelength of 520 nm. Tris(hydroxymethyl)aminomethane (Tris) assay buffer was used in all binding experiments and consisted of 10 mM Tris, […] potassium chloride, and 3.5 mM 3-((3-cholamidopropyl)dimethylammonium)-1-propanesulfonate (Chaps) at pH 8.0.
(§3) Test compounds were prepared from dimethylsulfoxide stocks (10 mM). […] Plates were incubated at room temperature for 1 hour and FP signals were recorded. For binding experiments to active p38α MAPK, the FP signals were recorded after 2 hours incubation at room temperature. Data is represented as mean±SEM from two to three independent experiments.

[2] = target: active phosphorylated p38α MAPK (Homo sapiens (Human), UniProt Q16539); experiment: Fluorescence polarisation (FP) binding assay, active enzyme
Chain of active phosphorylated p38α MAPK (Q16539 whole entry): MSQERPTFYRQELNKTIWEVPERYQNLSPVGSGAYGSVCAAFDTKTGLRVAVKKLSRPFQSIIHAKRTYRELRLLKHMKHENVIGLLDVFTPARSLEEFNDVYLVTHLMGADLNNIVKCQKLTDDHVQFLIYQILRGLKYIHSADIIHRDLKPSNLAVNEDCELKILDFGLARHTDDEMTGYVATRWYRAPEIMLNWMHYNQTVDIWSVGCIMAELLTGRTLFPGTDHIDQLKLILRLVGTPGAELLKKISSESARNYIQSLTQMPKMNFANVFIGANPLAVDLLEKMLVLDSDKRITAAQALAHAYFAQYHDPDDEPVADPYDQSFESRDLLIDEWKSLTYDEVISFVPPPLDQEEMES
Method: as §1, §2, §3

[3] = Table 6, read-out: Ki ± SEM (μM) to inactive p38α
[4] = Table 6, read-out: Ki ± SEM (μM) to active p38α
[5] = Table 5, read-out: Ki ± SEM (μM) to inactive p38α MAPK
[6] = Table 5, read-out: Ki ± SEM (μM) to active p38α MAPK
[7] = read-out: Ki to active p38α MAPK

Chain of inactive non-phosphorylated p38α MAPK (Q16539 whole entry): as above

| Structure (SMILES) | Ki [1, 3] [µM] | Ki [2, 4] [µM] | other results |
| --- | --- | --- | --- |
| O=C(NCCO)c1ccc(-c2c(C#CCCO)sc(-c3ccc(F)cc3)c2-c2ccncc2)cc1 [Compound 3.38, 4-(5-(4-Fluorophenyl)-2-(4-hydroxybut-1-yn-1-yl)-4-(pyridin-4-yl)thiophen-3-yl)-N-(2-hydroxyethyl)benzamide] | > 10 | 1.7 ± 0.2 |  |
| OCCC#Cc1sc(-c2ccc(F)cc2)c(-c2ccncc2)c1-c1ccc(F)cc1 [Compound 3.50, 4-(3,5-bis(4-Fluorophenyl)-4-(pyridin-4-yl)thiophen-2-yl)but-3-yn-1-ol] | > 10 | 0.9 ± 0.4 |  |
| Fc1ccc(-c2sc(I)c(I)c2-c2ccncc2)cc1 [Compound 3.3, 4-(2-(4-Fluorophenyl)-4,5-diiodothiophen-3-yl)pyridine] | > 10 | > 10 |  |
| OCCC#Cc1sc(-c2ccc(F)cc2)c(-c2ccncc2)c1I [Compound 3.55, 4-(5-(4-Fluorophenyl)-3-iodo-4-(pyridin-4-yl)thiophen-2-yl)but-3-yn-1-ol] | > 10 | > 10 |  |
| Fc1ccc(-c2sc(C#CCCN3CCOCC3)cc2-c2ccncc2)cc1 [Compound 5.8, 4-(4-(5-(4-Fluorophenyl)-4-(pyridin-4-yl)thiophen-2-yl)but-3-yn-1-yl)morpholine] | 2.2 ± 0.2 | 2.5 | Ki [1, 5]: 2.2 ± 0.2 µM; Ki [2, 6]: 2.5 µM; Ki [2, 7]: 2.5 µM |
| COC(=O)c1ccc(-c2c(C#CCCO)sc(-c3ccc(F)cc3)c2-c2ccncc2)cc1 [Compound 3.30, Methyl 4-(5-(4-fluorophenyl)-2-(4-hydroxybut-1-yn-1-yl)-4-(pyridin-4-yl)thiophen-3-yl)benzoate] | > 10 | > 10 |  |
| Cc1cccc(-c2c(C#CCCO)sc(-c3ccc(F)cc3)c2-c2ccncc2)c1 [Compound 3.48, 4-(5-(4-Fluorophenyl)-4-(pyridin-4-yl)-3-(m-tolyl)thiophen-2-yl)but-3-yn-1-ol] | > 10 | > 10 |  |
| O=C(c1ccco1)c1cc(-c2ccncc2)c(-c2ccc(F)cc2)s1 [Compound 5.17, (5-(4-Fluorophenyl)-4-(pyridin-4-yl)thiophen-2-yl) (furan-2-yl)methanone] | 5.9 ± 0.7 | 2.5 | Ki [1, 5]: 5.9 ± 0.7 µM; Ki [2, 6]: 2.5 µM |
| OCCC#Cc1sc(-c2ccc(F)cc2)c(-c2ccncc2)c1-c1cccc(CO)c1 [Compound 3.33, 4-(5-(4-Fluorophenyl)-3-(3-(hydroxymethyl)phenyl)-4-(pyridin-4-yl)thiophen-2-yl)but-3-yn-1-ol] | > 10 | 1.3 ± 0.2 |  |
| Fc1ccc(-c2scc(C#CCc3ccccc3)c2-c2ccncc2)cc1 [Compound 4.19, 4-(2-(4-Fluorophenyl)-4-(3-phenylprop-1-yn-1-yl)thiophen-3-yl)pyridine] | > 10 | 9.4 | binding to p38α MAPK, in words [1]: complete loss of binding; Ki ([1]; Table 1, read-out: Ki (μM, mean ± SEM) inactive p38α): > 10 µM; Ki ([2]; Table 1, read-out: Ki (μM, mean ± SEM) active p38α): 9.44 µM |
| O=C(O)c1cccc(-c2c(C#CCCO)sc(-c3ccc(F)cc3)c2-c2ccncc2)c1 [Compound 3.31, 3-(5-(4-Fluorophenyl)-2-(4-hydroxybut-1-yn-1-yl)-4-(pyridin-4-yl)thiophen-3-yl)benzoic acid] | > 10 | 7.1 |  |
| O=C(O)c1ccc(-c2c(C#CCCO)sc(-c3ccc(F)cc3)c2-c2ccncc2)cc1 [Compound 3.32, 4-(5-(4-Fluorophenyl)-2-(4-hydroxybut-1-yn-1-yl)-4-(pyridin-4-yl)thiophen-3-yl)benzoic acid] | > 10 | > 10 |  |
| CC(=O)Nc1cccc(-c2c(C#CCCO)sc(-c3ccc(F)cc3)c2-c2ccncc2)c1 [Compound 3.41, N-(3-(5-(4-fluorophenyl)-2-(4-hydroxybut-1-yn-1-yl)-4-(pyridin-4-yl)thiophen-3-yl)phenyl)acetamide] | 2.6 ± 0.6 | 2 ± 0.1 |  |
| OCCCC#Cc1cc(-c2ccncc2)c(-c2ccc(F)cc2)s1 [Compound 5.3, 5-(5-(4-Fluorophenyl)-4-(pyridin-4-yl)thiophen-2-yl)pent-4-yn-1-ol] | 1.7 ± 0.2 | 0.8 ± 0.04 | Ki [1, 5]: 1.7 ± 0.2 µM; Ki [2, 6]: 0.8 ± 0.04 µM |
| Nc1cccc(-c2c(C#CCCO)sc(-c3ccc(F)cc3)c2-c2ccncc2)c1 [Compound 3.39, 4-(3-(3-Aminophenyl)-5-(4-fluorophenyl)-4-(pyridin-4-yl)thiophen-2-yl)but-3-yn-1-ol] | > 10 | 3.2 |  |
| OCCC#Cc1sc(-c2ccc(F)cc2)c(-c2ccncc2)c1-c1ccc(Cl)cc1 [Compound 3.51, 4-(3-(4-Chlorophenyl)-5-(4-fluorophenyl)-4-(pyridin-4-yl)thiophen-2-yl)but-3-yn-1-ol] | > 10 | > 10 |  |
| CC(=O)c1ccc(-c2c(C#CCCO)sc(-c3ccc(F)cc3)c2-c2ccncc2)cc1 [Compound 3.53, 1-(4-(5-(4-Fluorophenyl)-2-(4-hydroxybut-1-yn-1-yl)-4-(pyridin-4-yl)thiophen-3-yl)phenyl)ethanone] | > 10 | 2.2 ± 0.3 |  |
| O=C(Nc1cccc(-c2c(C#CCCO)sc(-c3ccc(F)cc3)c2-c2ccncc2)c1)c1ccccc1 [Compound 3.43, N-(3-(5-(4-fluorophenyl)-2-(4-hydroxybut-1-yn-1-yl)-4-(pyridin-4-yl)thiophen-3-yl)phenyl)benzamide] | > 10 | > 10 |  |
| Fc1ccc(-c2sc(-c3c(F)c(F)nc(F)c3F)cc2-c2ccncc2)cc1 [Compound 5.19, 2,3,5,6-Tetrafluoro-4-(5-(4-fluorophenyl)-4-(pyridin-4-yl)thiophen-2-yl)pyridine] | 3.01 ± 0.03 | 0.8 ± 0.1 | Ki [1, 5]: 3.01 ± 0.03 µM; Ki [2, 6]: 0.8 ± 0.1 µM; Ki [2, 7]: 0.8 µM |
| OCCC#Cc1sc(-c2ccc(F)cc2)c(-c2ccncc2)c1-c1ccc(O)cc1 [Compound 3.54, 4-(5-(4-Fluorophenyl)-2-(4-hydroxybut-1-yn-1-yl)-4-(pyridin-4-yl)thiophen-3-yl)phenol] | > 10 | 3.4 |  |
| CCOC(=O)c1cc(-c2ccncc2)c(-c2ccc(F)cc2)s1 [Compound 5.11, Ethyl 5-(4-fluorophenyl)-4-(pyridin-4-yl)thiophene-2-carboxylate] | 6 ± 1 | 2.2 | Ki [1, 5]: 6 ± 1 µM; Ki [2, 6]: 2.2 µM |
| CN(C)c1ccc(-c2c(C#CCCO)sc(-c3ccc(F)cc3)c2-c2ccncc2)cc1 [Compound 3.49, 4-(3-(4-(Dimethylamino)phenyl)-5-(4-fluorophenyl)-4-(pyridin-4-yl)thiophen-2-yl)but-3-yn-1-ol] | > 10 | > 10 |  |
| OCCC#Cc1sc(-c2ccc(F)cc2)c(-c2ccncc2)c1-c1ccc(C(F)(F)F)cc1 [Compound 3.52, 4-(5-(4-Fluorophenyl)-4-(pyridin-4-yl)-3-(4-(trifluoromethyl)phenyl)thiophen-2-yl)but-3-yn-1-ol] | > 10 | > 10 |  |
| N#Cc1cccc(-c2c(C#CCCO)sc(-c3ccc(F)cc3)c2-c2ccncc2)c1 [Compound 3.47, 3-(5-(4-Fluorophenyl)-2-(4-hydroxybut-1-yn-1-yl)-4-(pyridin-4-yl)thiophen-3-yl)benzonitrile] | > 10 | 1.8 ± 0.4 |  |
| NCC#Cc1cc(-c2ccncc2)c(-c2ccc(F)cc2)s1 [Compound 5.6, 3-(5-(4-Fluorophenyl)-4-(pyridin-4-yl)thiophen-2-yl)prop-2-yn-1-amine] | > 10 |  | Ki [1, 5]: > 10 µM |
